Results taken from PubChem BioAssay AID1963973 (Molecular Pharmacology Branch, DTP, NCI, 2024).

Test system: 883617-216-R-J1-PDC tumor spheroids, viability
Experiment: Anticancer human tumor 883617-216-R-J1-PDC patient-derived bladder carcinoma cell line growth inhibition [PI3K]
Settings: spheroids with HUVEC and MSC; for viability, T/C: stronger effect = lower value
Outline: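 Complex 3D spheroids (cancer cells + endothelial HUVEC + mesenchymal stem cells); drug pairs of targeted agent x inavolisib/alpelisib/duvelisib/copanlisib; half-log series from ~Cmax, max 10 microM if Cmax unknown; endpoint viability.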

[1] = curve of first compound, second compound 0.0316 µM
[2] = curve of first compound, second compound 0.1 µM
[3] = curve of first compound, second compound 0.316 µM
[4] = curve of first compound, second compound 1 µM
[5] = second compound 0.0316 µM, first compound 0.0316 µM
[6] = second compound 0.0316 µM, first compound 0.1 µM
[7] = second compound 0.1 µM, first compound 0.0316 µM
[8] = second compound 0.1 µM, first compound 0.1 µM
[9] = second compound 0.316 µM, first compound 0.0316 µM
[10] = second compound 0.316 µM, first compound 0.1 µM
[11] = second compound 1 µM, first compound 0.0316 µM
[12] = second compound 1 µM, first compound 0.1 µM
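Also: spheroids exposed to agents for 7 days before the viability read.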

`CC(Cn1ccc(-c2ccc(C#N)c(Cl)c2)n1)NC(=O)c1cc(C(C)O)[nH]n1` (stereo not given) + CC(Nc1ccc2c(c1)OCCn1cc(N3C(=O)OCC3C(F)F)nc1-2)C(N)=O was tested. Which IC50 (curve of first compound, second compound 0.00316 µM) did it give?
The IC50 was > 10000 nM.

What about the IC50 (curve of first compound, second compound 0.01 µM) of the same compound?
Its IC50 is > 10000 nM.

And the IC50 [1]?
The IC50 was > 10000 nM.

And the IC50 [2]?
The IC50 was < 31.6 nM.

And the IC50 [3]?
The IC50 was < 31.6 nM.

What about the IC50 [4] of the same compound?
The IC50 was < 31.6 nM.

What about the viability, T/C (second compound 0.00316 µM, first compound 0.0316 µM) of the same compound?
Its viability, T/C is 86.4%.

And the viability, T/C (second compound 0.00316 µM, first compound 0.1 µM)?
Its viability, T/C is 85.9%.

What about the viability, T/C (second compound 0.00316 µM, first compound 0.316 µM) of the same compound?
Its viability, T/C is 84.1%.

What about the viability, T/C (second compound 0.00316 µM, first compound 1 µM) of the same compound?
The viability, T/C was 80.4%.

And the viability, T/C (second compound 0.00316 µM, first compound 3.16 µM)?
The viability, T/C was 90.8%.

And the viability, T/C (second compound 0.00316 µM, first compound 10 µM)?
The viability, T/C was 73.1%.

And the viability, T/C (second compound 0.01 µM, first compound 0.0316 µM)?
The viability, T/C was 84%.

And the viability, T/C (second compound 0.01 µM, first compound 0.1 µM)?
Its viability, T/C is 74.7%.

What about the viability, T/C (second compound 0.01 µM, first compound 0.316 µM) of the same compound?
Its viability, T/C is 80.1%.

What about the viability, T/C (second compound 0.01 µM, first compound 1 µM) of the same compound?
The viability, T/C was 84%.

What about the viability, T/C (second compound 0.01 µM, first compound 3.16 µM) of the same compound?
The viability, T/C was 90.5%.

What about the viability, T/C (second compound 0.01 µM, first compound 10 µM) of the same compound?
Its viability, T/C is 86.5%.

And the viability, T/C [5]?
The viability, T/C was 64.2%.

And the viability, T/C [6]?
The viability, T/C was 79.4%.

What about the viability, T/C (second compound 0.0316 µM, first compound 0.316 µM) of the same compound?
Its viability, T/C is 79.1%.

What about the viability, T/C (second compound 0.0316 µM, first compound 1 µM) of the same compound?
The viability, T/C was 80.3%.

And the viability, T/C (second compound 0.0316 µM, first compound 3.16 µM)?
The viability, T/C was 74.8%.

What about the viability, T/C (second compound 0.0316 µM, first compound 10 µM) of the same compound?
The viability, T/C was 67.4%.

What about the viability, T/C [7] of the same compound?
Its viability, T/C is 46.6%.

What about the viability, T/C [8] of the same compound?
The viability, T/C was 49.3%.

And the viability, T/C (second compound 0.1 µM, first compound 0.316 µM)?
Its viability, T/C is 55.1%.

And the viability, T/C (second compound 0.1 µM, first compound 1 µM)?
Its viability, T/C is 48.9%.

What about the viability, T/C (second compound 0.1 µM, first compound 3.16 µM) of the same compound?
Its viability, T/C is 43.7%.

And the viability, T/C (second compound 0.1 µM, first compound 10 µM)?
Its viability, T/C is 44.9%.

What about the viability, T/C [9] of the same compound?
Its viability, T/C is 25.3%.

And the viability, T/C [10]?
Its viability, T/C is 27.9%.

And the viability, T/C (second compound 0.316 µM, first compound 0.316 µM)?
The viability, T/C was 27.9%.

What about the viability, T/C (second compound 0.316 µM, first compound 1 µM) of the same compound?
The viability, T/C was 26.9%.

What about the viability, T/C (second compound 0.316 µM, first compound 3.16 µM) of the same compound?
Its viability, T/C is 26.8%.

What about the viability, T/C (second compound 0.316 µM, first compound 10 µM) of the same compound?
The viability, T/C was 23.2%.

What about the viability, T/C [11] of the same compound?
Its viability, T/C is 15.8%.

And the viability, T/C [12]?
The viability, T/C was 15%.

And the viability, T/C (second compound 1 µM, first compound 0.316 µM)?
Its viability, T/C is 17%.

What about the viability, T/C (second compound 1 µM, first compound 1 µM) of the same compound?
The viability, T/C was 14.9%.

What about the viability, T/C (second compound 1 µM, first compound 3.16 µM) of the same compound?
Its viability, T/C is 17.4%.

And the viability, T/C (second compound 1 µM, first compound 10 µM)?
Its viability, T/C is 17.3%.

How did the IC50 [1] turn out when `CC(=O)c1c(C)c2cnc(Nc3ccc(N4CCNCC4)cn3)nc2n(C2CCCC2)c1=O` + CC(Nc1ncnc2nc[nH]c12)c1cc2cccc(Cl)c2c(=O)n1-c1ccccc1 was run?
The IC50 was 86 nM.

What about the IC50 [2] of the same compound?
The IC50 was 79.9 nM.

And the IC50 [3]?
Its IC50 is 76.2 nM.

And the IC50 [4]?
The IC50 was 46.7 nM.

What about the IC50 (curve of first compound, second compound 3.16 µM) of the same compound?
The IC50 was 23 nM.

And the IC50 (curve of first compound, second compound 10 µM)?
The IC50 was < 0.316 nM.

What about the viability, T/C (second compound 0.0316 µM, first compound 0.000316 µM) of the same compound?
Its viability, T/C is 92.9%.

And the viability, T/C (second compound 0.0316 µM, first compound 0.001 µM)?
Its viability, T/C is 94.6%.

What about the viability, T/C (second compound 0.0316 µM, first compound 0.00316 µM) of the same compound?
Its viability, T/C is 87.7%.

And the viability, T/C (second compound 0.0316 µM, first compound 0.01 µM)?
Its viability, T/C is 86.6%.

What about the viability, T/C [5] of the same compound?
The viability, T/C was 79.6%.

And the viability, T/C [6]?
Its viability, T/C is 45.2%.

What about the viability, T/C (second compound 0.1 µM, first compound 0.000316 µM) of the same compound?
Its viability, T/C is 96%.

What about the viability, T/C (second compound 0.1 µM, first compound 0.001 µM) of the same compound?
The viability, T/C was 107%.

And the viability, T/C (second compound 0.1 µM, first compound 0.00316 µM)?
The viability, T/C was 76.3%.

What about the viability, T/C (second compound 0.1 µM, first compound 0.01 µM) of the same compound?
The viability, T/C was 79.8%.

And the viability, T/C [7]?
Its viability, T/C is 86.3%.

What about the viability, T/C [8] of the same compound?
The viability, T/C was 40.8%.

And the viability, T/C (second compound 0.316 µM, first compound 0.000316 µM)?
The viability, T/C was 100%.

What about the viability, T/C (second compound 0.316 µM, first compound 0.001 µM) of the same compound?
The viability, T/C was 95.3%.

And the viability, T/C (second compound 0.316 µM, first compound 0.00316 µM)?
Its viability, T/C is 87.1%.

What about the viability, T/C (second compound 0.316 µM, first compound 0.01 µM) of the same compound?
Its viability, T/C is 84.3%.

And the viability, T/C [9]?
The viability, T/C was 58.8%.

What about the viability, T/C [10] of the same compound?
Its viability, T/C is 47.3%.

And the viability, T/C (second compound 1 µM, first compound 0.000316 µM)?
The viability, T/C was 98%.

What about the viability, T/C (second compound 1 µM, first compound 0.001 µM) of the same compound?
The viability, T/C was 78.3%.

And the viability, T/C (second compound 1 µM, first compound 0.00316 µM)?
Its viability, T/C is 80.3%.

What about the viability, T/C (second compound 1 µM, first compound 0.01 µM) of the same compound?
Its viability, T/C is 71.3%.

And the viability, T/C [11]?
The viability, T/C was 58.6%.

What about the viability, T/C [12] of the same compound?
Its viability, T/C is 36.4%.

And the viability, T/C (second compound 3.16 µM, first compound 0.000316 µM)?
The viability, T/C was 76%.

And the viability, T/C (second compound 3.16 µM, first compound 0.001 µM)?
The viability, T/C was 61.3%.

What about the viability, T/C (second compound 3.16 µM, first compound 0.00316 µM) of the same compound?
Its viability, T/C is 68.8%.

And the viability, T/C (second compound 3.16 µM, first compound 0.01 µM)?
Its viability, T/C is 58.6%.

And the viability, T/C (second compound 3.16 µM, first compound 0.0316 µM)?
Its viability, T/C is 44.1%.

And the viability, T/C (second compound 3.16 µM, first compound 0.1 µM)?
The viability, T/C was 38.1%.

What about the viability, T/C (second compound 10 µM, first compound 0.000316 µM) of the same compound?
Its viability, T/C is 52.7%.

What about the viability, T/C (second compound 10 µM, first compound 0.001 µM) of the same compound?
Its viability, T/C is 39.4%.

And the viability, T/C (second compound 10 µM, first compound 0.00316 µM)?
The viability, T/C was 41.4%.

What about the viability, T/C (second compound 10 µM, first compound 0.01 µM) of the same compound?
Its viability, T/C is 46.4%.

What about the viability, T/C (second compound 10 µM, first compound 0.0316 µM) of the same compound?
Its viability, T/C is 31.9%.

And the viability, T/C (second compound 10 µM, first compound 0.1 µM)?
Its viability, T/C is 23.9%.

With `CCCS(=O)(=O)Nc1ccc(F)c(C(=O)c2c[nH]c3ncc(-c4ccc(Cl)cc4)cc23)c1F` as the compound, how does the viability, T/C (compound 0.0316 µM) read?
The viability, T/C was 99.5% [middle of 4 runs].

What about the viability, T/C (compound 0.1 µM) of the same compound?
The viability, T/C was 98.2% [middle of 4 runs].

And the viability, T/C (compound 0.316 µM)?
Its viability, T/C is 97% [middle of 4 runs].

And the viability, T/C (compound 3.16 µM)?
Its viability, T/C is 73.8% [middle of 4 runs].

And the viability, T/C (compound 10 µM)?
The viability, T/C was 9.39% [middle of 4 runs].

And the IC50 (curve of compound)?
The IC50 was 4.76 µM [middle of 4 runs].
